The target in the assay is T1, 4,4'-diapophytoene desaturase (4,4'-diaponeurosporene-forming) (Staphylococcus aureus (strain Newman), UniProt O07855).
T1 sequence (O07855 whole entry): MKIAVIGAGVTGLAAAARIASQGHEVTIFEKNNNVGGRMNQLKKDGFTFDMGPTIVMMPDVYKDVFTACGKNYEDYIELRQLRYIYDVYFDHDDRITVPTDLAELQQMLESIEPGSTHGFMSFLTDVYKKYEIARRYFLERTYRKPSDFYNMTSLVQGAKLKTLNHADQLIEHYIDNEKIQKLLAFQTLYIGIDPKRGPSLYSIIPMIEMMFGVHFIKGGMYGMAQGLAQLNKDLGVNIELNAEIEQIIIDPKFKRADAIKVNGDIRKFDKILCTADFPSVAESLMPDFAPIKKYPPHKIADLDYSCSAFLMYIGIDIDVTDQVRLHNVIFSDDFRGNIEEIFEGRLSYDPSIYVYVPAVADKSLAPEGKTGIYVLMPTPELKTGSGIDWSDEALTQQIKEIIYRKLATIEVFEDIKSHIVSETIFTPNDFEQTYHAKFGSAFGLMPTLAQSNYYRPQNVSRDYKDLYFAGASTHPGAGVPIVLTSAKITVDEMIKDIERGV
In words: Inhibition of CrtN in Staphylococcus aureus Newman assessed as reduction in staphyloxanthin levels after 48 hrs by spectrophotometric method-based pigment inhibition assay. More on the design: species or system Staphylococcus aureus subsp. aureus str. Newman.
Regarding `FC(F)(F)c1ccc(/C=C/CNCC2=COC3C=CC=CC23)cc1` (stereo not drawn), the concentration for half-maximal inhibition (IC50) was over 1 µM.
Take `CN(C/C=C/C1CCCC1)Cc1coc2ccccc12`: the IC50 was 0.397 µM.
The value for `CN(C/C=C/c1ccc(Br)cc1)Cc1cccc2cc[nH]c12` was 0.0838 µM.
Regarding `CN(CC/C=C/c1ccc(-c2ccccc2)cc1)Cc1coc2ccccc12`, the IC50 is over 1 µM.
In the case of `CN(C/C=C/c1ccc(C(F)(F)F)cc1)Cc1csc2ccccc12`, the concentration for half-maximal inhibition (IC50) was over 1 µM.
With `CN(C/C=C/c1ccc([N+](=O)[O-])cc1)Cc1coc2ccccc12`, the half-inhibitory concentration (IC50) came out at 0.0095 µM.
Consider `C/C(=C\c1ccc(-c2ccccc2)cc1)CN(C)Cc1cccc2cc[nH]c12`, for which the IC50 is over 1 µM.
Take `CN(C/C=C/c1ccc2ccccc2c1)Cc1cccc2cc[nH]c12`: the IC50 was 0.132 µM.
The figure for `COc1ccc(/C=C/CN(C)Cc2coc3ccccc23)c(F)c1` is over 1 µM.
The figure for `CN(C/C=C/c1ccccc1Cl)Cc1coc2ccccc12` is 0.36 µM.
The figure for `CN(C/C=C/C1CCCCC1)Cc1cccc2cc[nH]c12` is over 1 µM; for `CN(C/C=C/c1ccc(C(F)(F)F)c(F)c1)Cc1coc2ccccc12` it is over 1 µM.
`CN(C/C=C/c1ccc(C#N)cc1)Cc1cccc2cc[nH]c12`: the IC50 turned out to be 0.785 µM.
In the case of `CN(C/C=C/c1ccc(C(C)(C)C)cc1)Cc1cccc2cc[nH]c12`, the IC50 was 0.7 µM.
On to `CN(C/C=C/c1cccs1)Cc1coc2ccccc12`, for which the IC50 is over 1 µM.
With `CN(C/C=C/c1ccc(F)cc1)Cc1coc2ccccc12`, the IC50 is 0.0741 µM.
In the case of `CN(C/C=C/c1cccc(Cl)c1)Cc1coc2ccccc12`, the IC50 was over 1 µM.
`CN(C/C=C/c1ccc(C(F)(F)F)cc1)Cc1ccc2[nH]ccc2c1`: the IC50 came to 0.0628 µM.
The figure for `COc1ccccc1/C=C/CN(C)Cc1coc2ccccc12` is over 1 µM.
In the case of `CN(C/C=C/c1cccc([N+](=O)[O-])c1)Cc1coc2ccccc12`, the IC50 was over 1 µM.
Turning to `CN(C/C=C/c1ccccc1Cl)Cc1cccc2cc[nH]c12`, the concentration for half-maximal inhibition (IC50) was over 1 µM.
Turning to `CN(C/C=C/c1cccc(C(F)(F)F)c1)Cc1cccc2cc[nH]c12`, the 50% inhibitory concentration (IC50) was over 1 µM.
On to `CN(C/C=C/c1ccc(C(F)F)cc1)Cc1cccc2cc[nH]c12`, for which the IC50 is 0.0435 µM.
Turning to `CN(C/C=C/c1cccs1)Cc1cccc2cc[nH]c12`, the IC50 was over 1 µM.
For the molecule `CN(C/C=C/c1ccc(C(F)(F)F)cc1)Cc1cccc2[nH]ccc12`, the IC50 stood at 0.0896 µM.
Consider `CN(C/C=C/c1ccc2ccccc2c1)Cc1coc2ccccc12`, for which the IC50 amounted to 0.0064 µM.
For `C/C=C/CN(C)Cc1cccc2cc[nH]c12`, the IC50 is over 1 µM.
Regarding `CN(C/C=C/c1ccc(Cl)cc1Cl)Cc1cccc2cc[nH]c12`, the IC50 was 0.28 µM.
For the molecule `CN(C/C=C/C=C/c1ccc(-c2ccccc2)cc1)Cc1coc2ccccc12`, the IC50 was over 1 µM.
Turning to `CN(CCCc1ccc(-c2ccccc2)cc1)Cc1coc2ccccc12`, the 50% inhibitory concentration (IC50) is over 1 µM.
Consider `CN(C/C=C/c1ccc(C(F)F)cc1)Cc1coc2ccccc12`, for which the concentration for half-maximal inhibition (IC50) turned out to be 0.0064 µM.
Consider `CN(CC#Cc1ccc(-c2ccccc2)cc1)Cc1cccc2cc[nH]c12`, for which the IC50 was 0.102 µM.
On to `CN(CC#Cc1ccc(-c2ccccc2)cc1)Cc1coc2ccccc12`, for which the IC50 was over 1 µM.
Turning to `CN(C/C=C/c1ccc([N+](=O)[O-])cc1)Cc1cccc2cc[nH]c12`, the IC50 was over 1 µM.
The value for `COc1cccc(/C=C/CN(C)Cc2coc3ccccc23)c1` was over 1 µM; that for `CN(C/C=C/c1ccc(C(F)(F)F)cc1)Cc1cccc2cc[nH]c12` was 0.0502 µM.
With `CN(C/C=C/c1ccc(Cl)cc1)Cc1cccc2cc[nH]c12`, the concentration for half-maximal inhibition (IC50) amounted to 0.143 µM.
Consider `C/C=C/CN(C)Cc1coc2ccccc12`, for which the IC50 stood at 0.0913 µM.
In the case of `CN(C/C=C/C1CCCC1)Cc1cccc2cc[nH]c12`, the IC50 was over 1 µM.
With `COc1ccc(/C=C/CN(C)Cc2cccc3cc[nH]c23)cc1`, the 50% inhibitory concentration (IC50) stood at 0.167 µM.
Regarding `CCN(C/C=C/c1ccc(C(F)(F)F)cc1)CC1=COC2C=CC=CC12` (stereo not drawn), the IC50 was over 1 µM.
As to `Cc1cccc(/C=C/CN(C)Cc2coc3ccccc23)c1`, the half-inhibitory concentration (IC50) was over 1 µM.
`COC(=O)c1ccc(/C=C/CN(C)Cc2cccc3cc[nH]c23)cc1`: the IC50 was found to be 0.0878 µM.
The value for `CC(C)N(C/C=C/c1ccc(C(F)(F)F)cc1)CC1=COC2C=CC=CC12` (stereo not drawn) was over 1 µM; that for `COC(=O)c1ccc(/C=C/CN(C)Cc2coc3ccccc23)cc1` was 0.0095 µM.
Take `CN(C/C=C/c1cccc([N+](=O)[O-])c1)Cc1cccc2cc[nH]c12`: the half-inhibitory concentration (IC50) is over 1 µM.
In the case of `CN(C/C=C/c1ccccc1F)Cc1coc2ccccc12`, the concentration for half-maximal inhibition (IC50) is over 1 µM.
Take `CN(C/C=C/c1ccccc1)Cc1coc2ccccc12`: the IC50 was over 1 µM.
`CN(C/C=C/C1CCCCC1)Cc1coc2ccccc12`: the IC50 was over 1 µM.
For `Cc1ccccc1/C=C/CN(C)Cc1coc2ccccc12`, the IC50 was 0.0864 µM.
The figure for `CN(C/C=C/c1ccc(F)cc1)Cc1cccc2cc[nH]c12` is over 1 µM; for `CN(C/C=C/c1cccc2ccccc12)Cc1coc2ccccc12` it is over 1 µM.
In the case of `CN(C/C=C/c1ccco1)Cc1cccc2cc[nH]c12`, the IC50 is over 1 µM.
Turning to `CN(C/C=C/c1ccccc1[N+](=O)[O-])Cc1coc2ccccc12`, the concentration for half-maximal inhibition (IC50) came to 0.0741 µM.
Take `CCOc1ccc(/C=C/CN(C)Cc2cccc3cc[nH]c23)cc1`: the IC50 is 0.0648 µM.
Take `CN(C/C=C/c1cccc(C(F)(F)F)c1)Cc1coc2ccccc12`: the half-maximal inhibitory concentration (IC50) is over 1 µM.
As for `CN(C/C=C/c1ccccc1C(F)(F)F)Cc1cccc2cc[nH]c12`, the 50% inhibitory concentration (IC50) is over 1 µM.
On to `CN(C/C=C/c1ccc(C(C)(C)C)cc1)Cc1coc2ccccc12`, for which the IC50 is over 1 µM.
In the case of `CCN(C/C=C/c1ccc(C(F)(F)F)cc1)Cc1cccc2cc[nH]c12`, the 50% inhibitory concentration (IC50) was found to be 0.118 µM.
As to `CN(C/C=C/c1cccc(F)c1)Cc1coc2ccccc12`, the IC50 was over 1 µM.
In the case of `CN(C/C=C/c1ccccc1[N+](=O)[O-])Cc1cccc2cc[nH]c12`, the 50% inhibitory concentration (IC50) was over 1 µM.
Consider `C/C(=C\c1ccc(-c2ccccc2)cc1)CN(C)Cc1coc2ccccc12`, for which the IC50 is over 1 µM.
Take `CN(C/C=C/c1ccc(C(F)(F)F)cc1)Cc1cc2ccccc2s1`: the half-inhibitory concentration (IC50) was determined as 0.102 µM.
Take `CN(C/C=C/c1ccc(C(F)(F)F)cc1F)Cc1coc2ccccc12`: the IC50 came to 0.0092 µM.
The value for `CCOc1ccc(/C=C/CN(C)Cc2coc3ccccc23)cc1` was over 1 µM.
The figure for `CN(C/C=C/c1ccc(C(F)(F)F)cc1)Cc1cc2ccccc2o1` is 0.0732 µM.
Regarding `CN(C/C=C/c1ccc(C(F)(F)F)cc1)Cc1c[nH]c2ccccc12`, the half-maximal inhibitory concentration (IC50) was over 1 µM.
Turning to `CN(C/C=C/c1ccccc1C(F)(F)F)Cc1coc2ccccc12`, the IC50 is over 1 µM.
For `CN(C/C=C/c1ccccc1F)Cc1cccc2cc[nH]c12`, the IC50 is over 1 µM.
On to `CN(C/C=C/c1ccc(C(F)(F)F)c(F)c1)Cc1cccc2cc[nH]c12`, for which the IC50 was over 1 µM.
The value for `FC(F)(F)c1ccc(/C=C/CNCc2cccc3cc[nH]c23)cc1` was over 1 µM; that for `CN(CCCc1ccc(-c2ccccc2)cc1)Cc1cccc2cc[nH]c12` was over 1 µM.
For the molecule `COc1ccc(/C=C/CN(C)Cc2cccc3cc[nH]c23)cc1F`, the IC50 was over 1 µM.
`COc1ccc(/C=C/CN(C)Cc2coc3ccccc23)cc1F`: the half-inhibitory concentration (IC50) is over 1 µM.
As for `CN(C/C=C/c1cccc2ccccc12)Cc1cccc2cc[nH]c12`, the concentration for half-maximal inhibition (IC50) was over 1 µM.
As for `CN(C/C=C/c1ccc(C(F)(F)F)cc1)Cc1ccc2cc[nH]c2c1`, the IC50 amounted to 0.0643 µM.
With `COc1ccc(/C=C/CN(C)Cc2cccc3cc[nH]c23)c(F)c1`, the IC50 came out at 0.0731 µM.
As to `CN(C/C=C/c1cccc(F)c1)Cc1cccc2cc[nH]c12`, the IC50 is over 1 µM.
For the molecule `CC(C)N(C/C=C/c1ccc(C(F)(F)F)cc1)Cc1cccc2cc[nH]c12`, the IC50 was over 1 µM.
The value for `COc1cccc(/C=C/CN(C)Cc2cccc3cc[nH]c23)c1` was over 1 µM; that for `CN(C/C=C/c1ccccc1)Cc1cccc2cc[nH]c12` was over 1 µM; that for `CN(C/C=C/c1ccc(C#N)cc1)Cc1coc2ccccc12` was 0.0801 µM.
The value for `COc1ccccc1/C=C/CN(C)Cc1cccc2cc[nH]c12` was over 1 µM; that for `Cc1ccccc1/C=C/CN(C)Cc1cccc2cc[nH]c12` was over 1 µM.
For `CN(C/C=C/c1cccc(Cl)c1)Cc1cccc2cc[nH]c12`, the half-maximal inhibitory concentration (IC50) is over 1 µM.
For the molecule `CN(C/C=C/c1ccc(C(F)(F)F)cc1)Cc1coc2ccccc12`, the half-inhibitory concentration (IC50) came out at 0.0098 µM.
Take `CN(C/C=C/c1ccc(Cl)cc1Cl)Cc1coc2ccccc12`: the IC50 turned out to be 0.0062 µM.
For the molecule `Cc1cccc(/C=C/CN(C)Cc2cccc3cc[nH]c23)c1`, the IC50 is over 1 µM.
The figure for `Cc1ccc(/C=C/CN(C)Cc2cccc3cc[nH]c23)cc1` is 0.199 µM; for `CN(C/C=C/c1ccco1)Cc1coc2ccccc12` it is over 1 µM.
As to `Cc1ccc(/C=C/CN(C)Cc2coc3ccccc23)cc1`, the 50% inhibitory concentration (IC50) stood at 0.0099 µM.
The value for `CN(C/C=C/c1ccc(C(F)(F)F)cc1F)Cc1cccc2cc[nH]c12` was 0.0484 µM; that for `CN(C/C=C/c1ccc(C(F)(F)F)cc1)Cc1cc2ccccc2[nH]1` was over 1 µM.

By IC50 is commonly meant the concentration at which inhibition is half-maximal.

Values taken from ChEMBL document CHEMBL4024779, “Novel Terminal Bipheny-Based Diapophytoene Desaturases (CrtN) Inhibitors as Anti-MRSA/VISR/LRSA Agents with Reduced hERG Activity” (J Med Chem, 2018).
